From patent publication US20070128217A1 (priority 2003, published 2007)

Tests used:
[1] = test system: recombinant human anti-SARS-CoV antibody 03-018; format: binding; design: Binding of antibody 03-018 to linear peptides of the N protein of SARS-CoV Urbani / Binding of antibody 03-018 to looped/cyclic peptides of the N protein of SARS-CoV Urbani: unit not given here
[2] = test system: control sera (pooled serum of ten healthy LUMC hospital workers; commercial negative donor pooled serum from the Dutch bloodbank); format: binding, human; design: Binding of Control serum LUMC to linear peptides / Binding of Control serum Blood-bank to linear peptides / Binding of Control serum LUMC to looped peptides / Binding of Control Serum Blood-Bank to Looped peptides / Binding of Control serum LUMC to linear peptides of the protein M of SARS-CoV Urbani / Binding of Control serum Blood-bank to linear peptides of the protein M of SARS-CoV Urbani / Binding of Control serum LUMC to looped peptides of the protein M of SARS-CoV Urbani / Binding of Control Serum Blood-Bank to Looped peptides of the protein M of SARS-CoV Urbani: unit not given here
[3] = test system: rabbit serum obtained by immunizing a rabbit with the SARS-CoV strain Frankfurt 1; format: binding; design: Binding of a rabbit serum to linear peptides / Binding of a rabbit serum to looped peptides / Rabbit serum linear peptides / Rabbit serum looped peptides / Binding of a rabbit serum to linear peptides of protein N of SARS-CoV Urbani (Rabbit serum linear peptides) / Binding of a rabbit serum to looped/cyclic peptides of protein N of SARS-CoV Urbani (Rabbit serum looped peptides): unit not given here
[4] = test system: antibodies in sera from SARS patients (sera 1a, 1b, 2, 6, 37, 62, London, SARS-yellow, SARS-green); format: binding, human; design: Binding of serum 6 to linear peptides of protein X1 of SARS-CoV Urbani / Binding of serum 37 to linear peptides of protein X1 of SARS-CoV Urbani / Binding of serum 6 to looped/cyclic peptide (PEPSCAN-ELISA) / Binding of serum 37 to looped/cyclic peptide (PEPSCAN-ELISA) / Binding of serum 37 to looped/cyclic peptides of protein X1 of SARS-CoV Urbani / Binding of serum 6 to linear peptides of protein X2 / Binding of serum 37 to linear peptides of protein X2 / Binding of serum 37 to looped/cyclic peptides of protein X2 of SARS-CoV Urbani / Binding of serum 6 to linear peptides of protein M of SARS-CoV Urbani / Binding of serum 37 to linear peptides of protein M of SARS-CoV Urbani / Binding of serum 6 to looped/cyclic peptides of protein M of SARS-CoV Urbani / Binding of serum 37 to looped/cyclic peptides of protein M of SARS-CoV Urbani / Binding of serum 6 to linear peptides of protein X3 of SARS-CoV Urbani / Binding of serum 37 to linear peptides of protein X3 of SARS-CoV Urbani / Binding of serum 37 to looped/cyclic peptides of protein X3 of SARS-CoV Urbani / Binding of serum 6 to linear peptides of protein X4 of SARS-CoV Urbani / Binding of serum 37 to linear peptides of protein X4 of SARS-CoV Urbani / Binding of serum 37 to looped/cyclic peptides of protein X4 of SARS-CoV Urbani / Binding of serum 6 to linear peptides of protein X5 of SARS-CoV Urbani / Binding of serum 37 to linear peptides of protein X5 of SARS-CoV Urbani / Binding of serum 37 to looped/cyclic peptides of protein X5 of SARS-CoV Urbani / Binding of serum 6 to linear peptides of protein N of SARS-CoV Urbani / Binding of serum 37 to linear peptides of protein N of SARS-CoV Urbani / Binding of serum 6 to linear peptide (PEPSCAN-ELISA) / Binding of serum 1a to looped/cyclic peptides of protein N of SARS-CoV Urbani / Binding of serum 1b to looped/cyclic peptides of protein N of SARS-CoV Urbani / Binding of serum 2 to looped/cyclic peptides of protein N of SARS-CoV Urbani / Binding of serum 6 to looped/cyclic peptides of protein N of SARS-CoV Urbani / Binding of serum 37 to looped/cyclic peptides of protein N of SARS-CoV Urbani / Binding of serum 62 to looped/cyclic peptides of protein N of SARS-CoV Urbani / Binding of serum London to looped/cyclic peptides of protein N of SARS-CoV Urbani / Binding of serum SARS-green to looped/cyclic peptides of protein N of SARS-CoV Urbani: unit not given here

Row | Sequence | Binding of antibody 03-018 to linear peptides of the N protein of SARS-CoV Urbani [1] | Binding of antibody 03-018 to looped/cyclic peptides of the N protein of SARS-CoV Urbani [1] | Binding of a rabbit serum to linear peptides of protein N of SARS-CoV Urbani (Rabbit serum linear peptides) [3] | Binding of a rabbit serum to looped/cyclic peptides of protein N of SARS-CoV Urbani (Rabbit serum looped peptides) [3] | Binding of serum 1a to linear peptides of protein N of SARS-CoV Urbani [4] | Binding of serum 1a to looped/cyclic peptides of protein N of SARS-CoV Urbani [4] | Binding of serum 1b to linear peptides of protein N of SARS-CoV Urbani [4] | Binding of serum 1b to looped/cyclic peptides of protein N of SARS-CoV Urbani [4] | Binding of serum 2 to linear peptides of protein N of SARS-CoV Urbani [4] | Binding of serum 2 to looped/cyclic peptides of protein N of SARS-CoV Urbani [4] | Binding of serum 6 to linear peptides of protein N of SARS-CoV Urbani [4] | Binding of serum 6 to looped/cyclic peptides of protein N of SARS-CoV Urbani [4] | Binding of serum 37 to linear peptides of protein N of SARS-CoV Urbani [4] | Binding of serum 37 to looped/cyclic peptides of protein N of SARS-CoV Urbani [4] | Binding of serum 62 to linear peptides of protein N of SARS-CoV Urbani [4] | Binding of serum 62 to looped/cyclic peptides of protein N of SARS-CoV Urbani [4] | Binding of serum London to linear peptides of protein N of SARS-CoV Urbani [4] | Binding of serum London to looped/cyclic peptides of protein N of SARS-CoV Urbani [4] | Binding of serum SARS-green to linear peptides of protein N of SARS-CoV Urbani [4] | Binding of serum SARS-green to looped/cyclic peptides of protein N of SARS-CoV Urbani [4] | other results
1 | WLTYHGAIKLDDKDP | 0.1 | 0.2 | 0.2 | 0.2 | 0.3 | 0.2 | 0.2 | 0.1 | 0.2 | 0.2 | 0.2 | 0.1 | 0.7 | 0.4 | 0.8 | 0.3 | 0.6 | 0.3 | 0.3 | 0.0 | Control Serum Blood-Bank Looped peptides [2]: 0.4; Control serum Blood-bank linear peptides [2]: 0.8; Control serum LUMC linear peptides [2]: 0.7; Control serum LUMC looped peptides [2]: 0.4; Binding of serum SARS-yellow to linear peptides of protein N of SARS-CoV Urbani [4]: 0.7; Binding of serum SARS-yellow to looped/cyclic peptides of protein N of SARS-CoV Urbani [4]: 0.2
2 | WPQIAQFAPSASAFF | 0.1 | 0.3 | 0.1 | 0.6 | 0.2 | 0.5 | 0.1 | 0.3 | 0.1 | 0.5 | 0.2 | 0.3 | 0.6 | 0.8 | 0.5 | 0.9 | 0.5 | 0.5 | 0.3 | 0.5 | Control Serum Blood-Bank Looped peptides [2]: 0.8; Control serum Blood-bank linear peptides [2]: 0.6; Control serum LUMC linear peptides [2]: 0.6; Control serum LUMC looped peptides [2]: 0.9; Binding of serum SARS-yellow to linear peptides of protein N of SARS-CoV Urbani [4]: 0.7; Binding of serum SARS-yellow to looped/cyclic peptides of protein N of SARS-CoV Urbani [4]: 0.6
3 | WVATEGALNTPKDHI | 0.1 | 0.2 | 0.1 | 0.2 | 0.2 | 0.3 | 0.1 | 0.2 | 0.3 | 0.3 | 0.2 | 0.2 | 0.7 | 0.5 | 0.9 | 0.4 | 0.6 | 0.4 | 0.6 | 0.4 | Binding of Control Serum Blood-Bank to Looped peptides [2]: 0.5; Binding of Control serum Blood-bank to linear peptides [2]: 0.8; Binding of Control serum LUMC to linear peptides [2]: 0.9; Binding of Control serum LUMC to looped peptides [2]: 0.5; Binding of serum SARS-yellow to linear peptides of protein N of SARS-CoV Urbani [4]: 0.6; Binding of serum SARS-yellow to looped/cyclic peptides of protein N of SARS-CoV Urbani [4]: 0.2
